According to US20120238547A1, “2, 3, 6 - TRIAMINO SUBSTITUTED PYRIDINES AS KV7 (KCNQ) CHANNEL MODULATORS” (NEUROSEARCH A/S, priority 2009, published 2012):
pEC50: −log10 of the molar value.

How the values were obtained:
[1] = biological target: T1, human Kv7.2+3 (Homo sapiens, UniProt O43525+O43526); experiment: Patch-clamp on HEK293 cell lines stably expressing human Kv7.2+3 channels; assay type: cell-based; conditions: current relative to baseline current defined as 100%
T1 construct: expressed in transfected cells; host or cells: HEK293
Text: The effect obtained by these channel activators is described as a percentage increase in baseline current at a given concentration. The baseline current is defined as 100%, and an increase in current is expressed relative to this, i.e. an increase from 1 nA to 1.2 nA is reported as 120%.

[2] = biological target: T1, human Kv7.2+3; experiment: FLIPR-based thallium (I) influx characterization of Kv7.2+3 modulators; assay type: cell-based; conditions: for pEC50: HEK293 cells over-expressing human Kv7.2+3, Tl+ influx, BTC-AM, 50% of channel activity compared to retigabine control responses; for Efficacy: maximal response relative to the reference (retigabine) response
Procedure: This experiment determines the ability of a test compound to modulate the activity of Kv7.2+3 channels heterologously expressed in human HEK293 cells. The ability is determined relative to retigabine. The activity is determined using a standard thallium (I) sensitive assay, e.g. using a fluorometric method in a Fluorescent Image Plate Reader (FLIPR) as described below in more detail.
Full concentration/response curves are generated and EC50 values are calculated based on max values. EC50 values (Effective Concentration) represent the concentration of the test substance, at which 50% of the channel activity is obtained when compared to retigabine control responses. Maximal response determined relative to the reference (retigabine) response is calculated.
Human HEK293 cells over-expressing human Kv7.2+3 are grown in culture medium (DMEM supplemented with 10% foetal bovine serum), in polystyrene culture flasks ([…]) in a humidified atmosphere of 5% CO2 in air, at 37° C. Cell confluence should be 80-90% on day of plating. Cells are rinsed with 4 ml of PBS (phosphate buffered saline) and incubated 2 min with 1 ml of Trypsin-EDTA. After addition of 25 ml of culture medium cells are re-suspended by trituration with a 25 ml pipette.
The cells are seeded at a density of ˜3×10^6 cells/ml (25 μl/well) in blackwalled, clear bottom, 384-well plates pre-treated with 0.01 g/l poly-D-lysin (20 μl/well for ≧30 min). Plated cells were allowed to proliferate for 24 h before loading with dye.
BTC-AM (50 mg, Invitrogen) is added 25.5 μl DMSO. The BTC-AM stock solution (2 mM) is diluted to a final concentration of 2 μM in Cl^− free assay buffer (in mM: 140 Na^−-gluconate, 2.5 K^+-gluconate, 6 Ca2^+-gluconate, 1 Mg^2+ gluconate, 5 glucose, 10 HEPES, pH 7.3) containing 2 μM ouabain, 2 mM amaranth and 1 mM tartrazine. […]
After the loading period, the Tl^+-sensitive BTC fluorescence signal is measured over time using a FLIPR.
• Temperature: Room temp. • First addition: 12 μl test or control compound after 15 sec at a rate of 30 μl/sec and starting height of 20 μl • Second addition: 12 μl stimulus buffer (Cl^− free assay buffer supplemented with 1 mM Tl2SO4, 5 mM K2SO4 as well as the quenchers amaranth (2 mM) and tartrazine (1 mM)) is added after an additional 3 minutes at a rate of 30 μl/sec and starting height of 30 μl • Reading intervals: First sequence—3 sec×5, 2 sec×24 and 5 sec×25 • Second sequence—1 sec×5, 2 sec×24 and 5 sec×36 Addition plates (compound plate and stimulus plate) are placed in positions 2 and 3, respectively. […] Fluorescence obtained after stimulation is corrected for the mean basal fluorescence (in Cl^− free assay buffer). […]

IK (%) conc. 0.3 μM, −30 mV, 20 ms [1] | pEC50 [2] | Efficacy [2] | IK (%) conc. 0.03 μM, −30 mV, 20 ms ([1]; 0.03 μM) | Compound
293 (n = 2) % | 5.92 | 98% | – | Cc1ccoc1C(=O)Nc1c(C)cc(N2CCCOCC2)nc1N1CC[C@@H](F)C1 [Compound 1.1, 3-Methyl-furan-2-carboxylic acid [2-((R)-3-fluoro-pyrrolidin-1-yl)-4-methyl-6-[1,4]oxazepan-4-yl-pyridin-3-yl]-amide]
428 (n = 5) % | 6.72 | 98% | 136% | Cc1ccoc1C(=O)Nc1c(C)cc(N2CCOCC2)nc1N1CC[C@@H](F)C1 [Compound 1.2, 3-Methyl-furan-2-carboxylic acid [2-((R)-3-fluoro-pyrrolidin-1-yl)-4-methyl-6-morpholin-4-yl-pyridin-3-yl]-amide]
